Calls of active or inactive are those of the source. The calls are words filed in the database; no cut-off is given here.
Assays:
[1] = tested on: HCT-116; assay: Inhibition of colony formation of human HCT116 cells assessed as reduction in clonogenic ability at 5 to 20 ug/ml incubated for 10 to 14 days by crystal violet staining based assay; type: functional, cell-based
[2] = tested on: SW480; assay: Inhibition of colony formation of human SW480 cells assessed as reduction in clonogenic ability at 5 to 20 ug/ml incubated for 10 to 14 days by crystal violet staining based assay; type: functional, cell-based
[3] = tested on: DLD-1; assay: Inhibition of colony formation of human DLD1 cells assessed as reduction in clonogenic ability at 5 to 20 ug/ml incubated for 10 to 14 days by crystal violet staining based assay; type: functional, cell-based
[4] = tested on: HCT-116; assay: Induction of apoptosis in human HCT116 cells incubated for 48 hrs by annexin-V/PI staining based flow cyclometry; type: functional, cell-based
[5] = tested on: HCT-116; assay: Induction of apoptosis in human HCT116 cells assessed as reduction in Bcl2 protein expression incubated for 48 hrs by Western blot analysis; type: functional, cell-based
[6] = tested on: HCT-116; assay: Induction of apoptosis in human HCT116 cells assessed as increase in Bax protein expression incubated for 48 hrs by Western blot analysis; type: functional, cell-based
[7] = tested on: HCT-116; assay: Induction of apoptosis in human HCT116 cells assessed as increase in cleaved capse-3 protein level incubated for 48 hrs by Western blot analysis; type: functional, cell-based
[8] = tested on: HCT-116; assay: Induction of mitochondrial membrane potential loss in human HCT116 cells at 5 to 20 ug/ml incubated for 48 hrs by RH123.dye based FCM analysis; type: functional, cell-based
[9] = tested on: HCT-116; assay: Induction of ROS generation in human HCT116 cells at 5 to 20 ug/ml incubated for 48 hrs by DCFH-DA staining based FCM analysis; type: functional, cell-based
[10] = tested on: DLD-1; assay: Inhibition of cell migration in human DLD1 cells at 5 to 20 ug/ml incubated for 48 hrs by Transwell migration assay; type: functional, cell-based
[11] = tested on: DLD-1; assay: Inhibition of cell invasion in human DLD1 cells at 5 to 20 ug/ml incubated for 48 hrs by crystal violet staining based inverted microscopy; type: functional
[12] = tested on: DLD-1; assay: Inhibition of cell motility associated protein expression in human DLD1 cells assessed as effect on MMP2 expression at 5 to 20 ug/ml incubated for 48 hrs by Western blot analysis; type: functional, cell-based
[13] = tested on: DLD-1; assay: Inhibition of cell motility associated protein expression in human DLD1 cells assessed as effect on MMP9 expression at 5 to 20 ug/ml incubated for 48 hrs by Western blot analysis; type: functional, cell-based
[14] = tested on: DLD-1; assay: Inhibition of cell motility associated protein expression in human DLD1 cells assessed as effect on TIMP2 expression at 5 to 20 ug/ml incubated for 48 hrs by Western blot analysis; type: functional, cell-based
[15] = tested on: HCT-116; assay: Induction of apoptosis in human HCT116 cells assessed as viable cell level at 5 ug/ml incubated for 48 hrs by annexin-V/PI staining based flow cyclometry (reference value: 81.8%); type: functional
[16] = tested on: HCT-116; assay: Induction of apoptosis in human HCT116 cells assessed as early apoptotic cell level at 5 ug/ml incubated for 48 hrs by annexin-V/PI staining based flow cyclometry (reference value: 1.84%); type: functional
[17] = tested on: HCT-116; assay: Induction of apoptosis in human HCT116 cells assessed as late apoptotic cell level at 5 ug/ml incubated for 48 hrs by annexin-V/PI staining based flow cyclometry (reference value: 5.11%); type: functional
[18] = tested on: HCT-116; assay: Induction of apoptosis in human HCT116 cells assessed as necrotic cell level at 5 ug/ml incubated for 48 hrs by annexin-V/PI staining based flow cyclometry (reference value: 4.9%); type: functional
[19] = tested on: HCT-116; assay: Induction of apoptosis in human HCT116 cells assessed as viable cell level at 10 ug/ml incubated for 48 hrs by annexin-V/PI staining based flow cyclometry (reference value: 81.8%); type: functional
[20] = tested on: HCT-116; assay: Induction of apoptosis in human HCT116 cells assessed as early apoptotic cell level at 10 ug/ml incubated for 48 hrs by annexin-V/PI staining based flow cyclometry (reference value: 1.84%); type: functional
[21] = tested on: HCT-116; assay: Induction of apoptosis in human HCT116 cells assessed as late apoptotic cell level at 10 ug/ml incubated for 48 hrs by annexin-V/PI staining based flow cyclometry (reference value: 5.11%); type: functional
[22] = tested on: HCT-116; assay: Induction of apoptosis in human HCT116 cells assessed as necrotic cell level at 10 ug/ml incubated for 48 hrs by annexin-V/PI staining based flow cyclometry (reference value: 4.9%); type: functional
[23] = tested on: HCT-116; assay: Induction of apoptosis in human HCT116 cells assessed as viable cell level at 20 ug/ml incubated for 48 hrs by annexin-V/PI staining based flow cyclometry (reference value: 81.8%); type: functional
[24] = tested on: HCT-116; assay: Induction of apoptosis in human HCT116 cells assessed as early apoptotic cell level at 20 ug/ml incubated for 48 hrs by annexin-V/PI staining based flow cyclometry (reference value: 1.84%); type: functional
[25] = tested on: HCT-116; assay: Induction of apoptosis in human HCT116 cells assessed as late apoptotic cell level at 20 ug/ml incubated for 48 hrs by annexin-V/PI staining based flow cyclometry (reference value: 5.11%); type: functional
[26] = tested on: HCT-116; assay: Induction of apoptosis in human HCT116 cells assessed as necrotic cell level at 20 ug/ml incubated for 48 hrs by annexin-V/PI staining based flow cyclometry (reference value: 4.9%); type: functional
[27] = Toxicity in BALB/c mouse xenografted with human HCT116 cells assessed as effect on body weight at 10 to 20 mg/kg, ip dosed daily for 21 days starting from 1 day post implantation and measured every three days; type: organism-based; conditions: in vivo
[28] = tested on: HCT-116; assay: Antitumor activity against human HCT116 cells xenografted in BALB/c mouse assessed as inhibition of tumor growth at 10 to 20 mg/kg, ip dosed daily for 21 days starting from 1 day post implantation and measured every three days; type: functional, organism-based
[29] = tested on: HCT-116; assay: Antitumor activity against human HCT116 cells xenografted in BALB/c mouse assessed as reduction in Ki-67 positive cells in tumor at 10 to 20 mg/kg, ip dosed daily for 21 days starting from 1 day post implantation and measured every three days by immunohistochemistry analysis; type: functional, organism-based
[30] = tested on: HCT-116; assay: Antitumor activity against human HCT116 cells xenografted in BALB/c mouse assessed as reduction in MMP2 positive cells in tumor at 10 to 20 mg/kg, ip dosed daily for 21 days starting from 1 day post implantation and measured every three days by immunohistochemistry analysis; type: functional, organism-based
[31] = Toxicity in BALB/c mouse xenografted with human HCT116 cells assessed as induction of alterations in heart at 10 to 20 mg/kg, ip dosed daily for 21 days starting from 1 day post implantation and measured every three days by hematoxylin and eosin staining based histopathological analysis; type: organism-based; conditions: in vivo
[32] = Toxicity in BALB/c mouse xenografted with human HCT116 cells assessed as induction of alterations in liver at 10 to 20 mg/kg, ip dosed daily for 21 days starting from 1 day post implantation and measured every three days by hematoxylin and eosin staining based histopathological analysis; type: organism-based; conditions: in vivo
[33] = Toxicity in BALB/c mouse xenografted with human HCT116 cells assessed as induction of alterations in spleen at 10 to 20 mg/kg, ip dosed daily for 21 days starting from 1 day post implantation and measured every three days by hematoxylin and eosin staining based histopathological analysis; type: organism-based; conditions: in vivo
[34] = Toxicity in BALB/c mouse xenografted with human HCT116 cells assessed as induction of alterations in lung at 10 to 20 mg/kg, ip dosed daily for 21 days starting from 1 day post implantation and measured every three days by hematoxylin and eosin staining based histopathological analysis; type: organism-based; conditions: in vivo
[35] = Toxicity in BALB/c mouse xenografted with human HCT116 cells assessed as induction of alterations in kidney at 10 to 20 mg/kg, ip dosed daily for 21 days starting from 1 day post implantation and measured every three days by hematoxylin and eosin staining based histopathological analysis; type: organism-based; conditions: in vivo
[36] = tested on: HCT-116; assay: Induction of mitochondrial membrane potential loss in human HCT116 cells at 5 ug/ml incubated for 48 hrs by RH123.dye based FCM analysis (reference value: 6.37%); type: functional
[37] = tested on: HCT-116; assay: Induction of mitochondrial membrane potential loss in human HCT116 cells at 10 ug/ml incubated for 48 hrs by RH123.dye based FCM analysis (reference value: 6.37%); type: functional
[38] = tested on: HCT-116; assay: Induction of mitochondrial membrane potential loss in human HCT116 cells at 20 ug/ml incubated for 48 hrs by RH123.dye based FCM analysis (reference value: 6.37%); type: functional
[39] = tested on: HCT-116; assay: Induction of ROS generation in human HCT116 cells at 5 ug/ml incubated for 48 hrs by DCFH-DA staining based FCM analysis (reference value: 4.44%); type: functional
[40] = tested on: HCT-116; assay: Induction of ROS generation in human HCT116 cells at 10 ug/ml incubated for 48 hrs by DCFH-DA staining based FCM analysis (reference value: 4.44%); type: functional
[41] = tested on: HCT-116; assay: Induction of ROS generation in human HCT116 cells at 20 ug/ml incubated for 48 hrs by DCFH-DA staining based FCM analysis (reference value: 4.44%); type: functional

Compound: C=C(C)[C@@H]1CC[C@]2(C(=O)O)CC[C@]3(C)[C@H](CC[C@@H]4[C@@]5(C)CC[C@H](O)C(C)(C)[C@@H]5CC[C@]43C)[C@@H]12 [BETULINIC ACID]
- inhibition [1]: Active
- inhibition [2]: Active
- inhibition [3]: Active
- Activity [4]: Dose-dependent effect
- Activity [5]: Dose-dependent effect
- Activity [6]: Dose-dependent effect
- Activity [7]: Dose-dependent effect
- Activity [8]: Active
- Activity [9]: Dose-dependent effect
- Activity [10]: Active
- Activity [11]: Active
- inhibition [12]: Active
- inhibition [13]: Active
- inhibition [14]: Active
- Activity [15]: 79%
- Activity [16]: 1.63%
- Activity [17]: 11.5%
- Activity [18]: 7.94%
- Activity [19]: 73.8%
- Activity [20]: 2.33%
- Activity [21]: 13%
- Activity [22]: 10.9%
- Activity [23]: 53.5%
- Activity [24]: 6.72%
- Activity [25]: 25.2%
- Activity [26]: 14.5%
- Activity [27]: Non-Toxic
- TGI [28]: Active
- inhibition [29]: Active
- inhibition [30]: Active
- Activity [31]: Non-Toxic
- Activity [32]: Non-Toxic
- Activity [33]: Non-Toxic
- Activity [34]: Non-Toxic
- Activity [35]: Non-Toxic
- Activity [36]: 17.2%
- Activity [37]: 19.5%
- Activity [38]: 21.3%
- Activity [39]: 9.58%
- Activity [40]: 13.6%
- Activity [41]: 18.9%
